Source: patent US20250223303A1, “TRICYCLIC BORONIC ACID DERIVATIVE, AND PREPARATION METHOD THEREFOR AND APPLICATION THEREOF” (priority 2021, published 2025)

Assays:
[1] = tested on: Klebsiella pneumoniae ATCC BAA-2470; test: MIC test of compounds in combination with antibiotics, Klebsiella pneumoniae ATCC BAA-2470; settings: for MIC of biapenem in combination with compound, Klebsiella pneumoniae ATCC BAA-2470 NDM-1: Biapenem + compound (8 μg/mL); for MIC of meropenem in combination with compound, Klebsiella pneumoniae ATCC BAA-2470 NDM-1: Meropenem + compound (8 μg/mL)
[2] = tested on: Acinetobacter baumannii WX-AB013; test: MIC test of compounds in combination with antibiotics, Acinetobacter baumannii WX-AB013; settings: for MIC of biapenem in combination with compound, Acinetobacter baumannii WX-AB013: Biapenem + compound (8 μg/mL); for MIC of meropenem in combination with compound, Acinetobacter baumannii WX-AB013: Meropenem + compound (8 μg/mL)
Protocol: (§1) 2-Fold gradient dilution of antibiotics: 300 μL of CAMHVIB medium was added to columns 2-12 of a 96-deep well plate. In column 1, 24 μL of antibiotic stock solution and 576 µL of CAMHB medium were added and mixed well, with a concentration of 512 μg/mL. 300 µL of antibiotic solution was transferred from the column 1 to the second column and mixed well. The process was repeated until column 11, and the column 12 was a blank control.
(§2) Dilution of combined compounds: the compound was diluted 400-fold to 32 μg/ml with CAMHB medium.
(§3) Working solution aliquoting: 25 μL of antibiotics was aliquoted into the 96-U bottom plate with a pipette, and 25 μL of combined compound was added to each well. If antibiotics were used alone, 25 μL of CAMHB medium was added.
(§4) Inoculum solution preparation: 5-6 single colonies were selected from the plate and suspended in normal saline. The bacterial suspension was adjusted to 0.2 (i.e., 0.5 McFarland turbidity, with a bacterial concentration was about 1 to 2×10^8 CFU/mL) with a turbidity meter. The bacterial suspension was diluted 100-fold with CAMHB medium for later use.
(§5) Inoculation: 50 μL of inoculum solution was transferred to the above 50 μL compound plate with a pipette.
(§6) Culture: The 96-U bottom plate was placed in an incubator at 37° C. for 18 to 20 h.

[3] = tested on: Klebsiella pneumoniae ARLG 1196; test: MIC test of compounds in combination with antibiotics, Klebsiella pneumoniae ARLG 1196; settings: for MIC of biapenem in combination with compound, Klebsiella pneumoniae ARLG-1196 CTM-1 group, SHV, NDM, TEM: Biapenem + compound (8 μg/mL); for MIC of meropenem in combination with compound, Klebsiella pneumoniae ARLG-1196 CTM-1 group, SHV, NDM, TEM: Meropenem + compound (8 μg/mL)
[4] = tested on: Acinetobacter baumannii ARLG-1809 OXA-23; test: MIC test of compounds in combination with antibiotics, Acinetobacter baumannii ARLG-1809; settings: for MIC of biapenem in combination with compound, Acinetobacter baumannii ARLG-1809 OXA-23: Biapenem + compound (8 μg/mL); for MIC of meropenem in combination with compound, Acinetobacter baumannii ARLG-1809 OXA-23: Meropenem + compound (8 μg/mL)
Protocol: as §1, §2, §3, §4, §5, §6

[5] = tested on: Acinetobacter baumannii ARLG-1853 OXA-23; test: MIC test of compounds in combination with antibiotics, Acinetobacter baumannii ARLG-1853; settings: for MIC of biapenem in combination with compound, Acinetobacter baumannii ARLG-1853 OXA-23: Biapenem + compound (8 μg/mL); for MIC of meropenem in combination with compound, Acinetobacter baumannii ARLG-1853 OXA-23: Meropenem + compound (8 μg/mL)
Protocol: as §1, §2, §3, §4, §5, §6

[6] = tested on: Klebsiella pneumoniae ATCC BAA-1705; test: MIC test of compounds in combination with antibiotics, Klebsiella pneumoniae ATCC BAA-1705; settings: for MIC of biapenem in combination with compound, Klebsiella pneumoniae ATCC BAA-1705 KPC-2: Biapenem + compound (8 μg/mL); for MIC of meropenem in combination with compound, Klebsiella pneumoniae ATCC BAA-1705 KPC-2: Meropenem + compound (8 μg/mL)
Protocol: Strain preparation: the strains to be tested were streaked from glycerol tube at −80° C. onto Mueller Hinton II Agar plates. The plates were then placed in a 37° C. incubator and cultured for 18-24 hours.
Media preparation: CAMHB (Mueller Hinton II Broth): 22 g of powder was dissolved in 1 L of purified water and sterilized at 121° C. for 10 min for use. Saline: 8.5 g NaCl was dissolved in 1 L of pure water and sterilized at 121° C. for 30 min for use.
Preparation of compound and antibiotic stock solutions: the compound and antibiotic were dissolved in DMSO or water to 12.8 mg/mL.
as §1, §2, §3, §4, §5, §6
After the incubation, bacterial growth was visually observed, and the test plate was photographed and recorded.

[7] = tested on: Acinetobacter baumannii ARLG-1852 OXA-23; test: MIC test of compounds in combination with antibiotics, Acinetobacter baumannii ARLG-1852; settings: for MIC of biapenem in combination with compound, Acinetobacter baumannii ARLG-1852 OXA-23: Biapenem + compound (8 μg/mL); for MIC of meropenem in combination with compound, Acinetobacter baumannii ARLG-1852 OXA-23: Meropenem + compound (8 μg/mL)
Protocol: as §1, §2, §3, §4, §5, §6

[8] = tested on: Acinetobacter baumannii ARLG-1791 OXA-23; test: MIC test of compounds in combination with antibiotics, Acinetobacter baumannii ARLG-1791; settings: for MIC of biapenem in combination with compound, Acinetobacter baumannii ARLG-1791 OXA-23: Biapenem + compound (8 μg/mL); for MIC of meropenem in combination with compound, Acinetobacter baumannii ARLG-1791 OXA-23: Meropenem + compound (8 μg/mL)
[9] = tested on: Acinetobacter baumannii WX-AB005; test: MIC test of compounds in combination with antibiotics, Acinetobacter baumannii WX-AB005; settings: for MIC of biapenem in combination with compound, Acinetobacter baumannii WX-AB005: Biapenem + compound (8 μg/mL); for MIC of meropenem in combination with compound, Acinetobacter baumannii WX-AB005: Meropenem + compound (8 μg/mL)
Protocol: as §1, §2, §3, §4, §5, §6

[10] = tested on: Escherichia coli ARLG 2829; test: MIC test of compounds in combination with antibiotics, Escherichia coli ARLG 2829; settings: for MIC of biapenem in combination with compound, Escherichia coli ARLG-2829 NDM-5, OXA-1: Biapenem + compound (8 μg/mL); for MIC of meropenem in combination with compound, Escherichia coli ARLG-2829 NDM-5, OXA-1: Meropenem + compound (8 μg/mL)

In the case of `NC1COCC1Sc1ccc2c(c1C(=O)O)OB(O)C1CC21` (single isomer, unassigned) [Compound 11_P1], the “MIC of biapenem in combination with compound, Klebsiella pneumoniae ATCC BAA-2470 NDM-1” value [1] is reported as 0.25 µg/mL, the “MIC of meropenem in combination with compound, Klebsiella pneumoniae ATCC BAA-2470 NDM-1” value [1] is reported as at most 0.125 µg/mL and the “MIC of biapenem in combination with compound, Acinetobacter baumannii WX-AB013” value [2] is reported as 0.5 µg/mL. The “MIC of meropenem in combination with compound, Acinetobacter baumannii WX-AB013” value [2] was 2 µg/mL, the “MIC of biapenem in combination with compound, Klebsiella pneumoniae ARLG-1196 CTM-1 group, SHV, NDM, TEM” value [3] was 0.25 µg/mL and the “MIC of meropenem in combination with compound, Klebsiella pneumoniae ARLG-1196 CTM-1 group, SHV, NDM, TEM” value [3] was 0.5 µg/mL. For the same compound, the “MIC of biapenem in combination with compound, Acinetobacter baumannii ARLG-1809 OXA-23” value [4] was 0.5 µg/mL, the “MIC of meropenem in combination with compound, Acinetobacter baumannii ARLG-1809 OXA-23” value [4] was 2 µg/mL and the “MIC of biapenem in combination with compound, Acinetobacter baumannii ARLG-1853 OXA-23” value [5] was at most 0.125 µg/mL. For the same compound, the “MIC of meropenem in combination with compound, Acinetobacter baumannii ARLG-1853 OXA-23” value [5] was 2 µg/mL, the “MIC of biapenem in combination with compound, Klebsiella pneumoniae ATCC BAA-1705 KPC-2” value [6] was at most 0.125 µg/mL and the “MIC of meropenem in combination with compound, Klebsiella pneumoniae ATCC BAA-1705 KPC-2” value [6] was at most 0.125 µg/mL. For the same compound, the “MIC of biapenem in combination with compound, Acinetobacter baumannii ARLG-1852 OXA-23” value [7] was 0.25 µg/mL, the “MIC of meropenem in combination with compound, Acinetobacter baumannii ARLG-1852 OXA-23” value [7] was 1 µg/mL and the “MIC of biapenem in combination with compound, Acinetobacter baumannii ARLG-1791 OXA-23” value [8] was 0.25 µg/mL. The “MIC of meropenem in combination with compound, Acinetobacter baumannii ARLG-1791 OXA-23” value [8] was 2 µg/mL, the “MIC of biapenem in combination with compound, Acinetobacter baumannii WX-AB005” value [9] was 1 µg/mL and the “MIC of meropenem in combination with compound, Acinetobacter baumannii WX-AB005” value [9] was 4 µg/mL. The “MIC of biapenem in combination with compound, Escherichia coli ARLG-2829 NDM-5, OXA-1” value [10] was 0.25 µg/mL and the “MIC of meropenem in combination with compound, Escherichia coli ARLG-2829 NDM-5, OXA-1” value [10] was at most 0.125 µg/mL.
For `NC1COCC1Sc1ccc2c(c1C(=O)O)OB(O)C1CC21` (single isomer, unassigned) [Compound 10_P2], the “MIC of biapenem in combination with compound, Klebsiella pneumoniae ATCC BAA-2470 NDM-1” value [1] was 0.5 µg/mL, the “MIC of meropenem in combination with compound, Klebsiella pneumoniae ATCC BAA-2470 NDM-1” value [1] was 0.25 µg/mL and the “MIC of biapenem in combination with compound, Acinetobacter baumannii WX-AB013” value [2] was 0.5 µg/mL. The “MIC of meropenem in combination with compound, Acinetobacter baumannii WX-AB013” value [2] was 1 µg/mL, the “MIC of biapenem in combination with compound, Klebsiella pneumoniae ARLG-1196 CTM-1 group, SHV, NDM, TEM” value [3] was 0.25 µg/mL and the “MIC of meropenem in combination with compound, Klebsiella pneumoniae ARLG-1196 CTM-1 group, SHV, NDM, TEM” value [3] was 1 µg/mL. For the same compound, the “MIC of biapenem in combination with compound, Acinetobacter baumannii ARLG-1809 OXA-23” value [4] was 0.25 µg/mL, the “MIC of meropenem in combination with compound, Acinetobacter baumannii ARLG-1809 OXA-23” value [4] was 2 µg/mL and the “MIC of biapenem in combination with compound, Acinetobacter baumannii ARLG-1853 OXA-23” value [5] was at most 0.125 µg/mL. The “MIC of meropenem in combination with compound, Acinetobacter baumannii ARLG-1853 OXA-23” value [5] was 1 µg/mL, the “MIC of biapenem in combination with compound, Klebsiella pneumoniae ATCC BAA-1705 KPC-2” value [6] was at most 0.125 µg/mL and the “MIC of meropenem in combination with compound, Klebsiella pneumoniae ATCC BAA-1705 KPC-2” value [6] was at most 0.125 µg/mL. The “MIC of biapenem in combination with compound, Acinetobacter baumannii ARLG-1852 OXA-23” value [7] was at most 0.125 µg/mL, the “MIC of meropenem in combination with compound, Acinetobacter baumannii ARLG-1852 OXA-23” value [7] was 1 µg/mL and the “MIC of biapenem in combination with compound, Acinetobacter baumannii ARLG-1791 OXA-23” value [8] was 0.25 µg/mL. The “MIC of meropenem in combination with compound, Acinetobacter baumannii ARLG-1791 OXA-23” value [8] was 4 µg/mL, the “MIC of biapenem in combination with compound, Acinetobacter baumannii WX-AB005” value [9] was 1 µg/mL and the “MIC of meropenem in combination with compound, Acinetobacter baumannii WX-AB005” value [9] was 4 µg/mL. For the same compound, the “MIC of biapenem in combination with compound, Escherichia coli ARLG-2829 NDM-5, OXA-1” value [10] was at most 0.125 µg/mL and the “MIC of meropenem in combination with compound, Escherichia coli ARLG-2829 NDM-5, OXA-1” value [10] was 0.25 µg/mL.
